Laboratory results: ChEMBL document CHEMBL5518218, “Discovery of Novel PD-L1 Small-Molecular Inhibitors with Potent In Vivo Anti-tumor Immune Activity” (J Med Chem, 2024)
Active and inactive are the calls of the source. The calls are words filed in the database; no cut-off is given here.

Tests used:
[1] = Prodrug conversion in Sprague-Dawley rat assessed as AUC (0 to t) of (2-(benzo[c][1,2,5]oxadiazol-5-ylmethoxy)-5-chloro-4-((2-fluoro-3'-(3-(4-hydroxypiperidin-1-yl)propoxy)-[1,1'-biphenyl]-3-yl)methoxy)benzyl)-D-serine at 9 mg/kg, iv measured upto 24 hrs by LC-MS/MS analysis; type: ADME, organism-based; settings: in vivo
[2] = Prodrug conversion in Sprague-Dawley rat assessed as AUC (0 to t) of (2-(benzo[c][1,2,5]oxadiazol-5-ylmethoxy)-5-chloro-4-((2-fluoro-3'-(3-(4-hydroxypiperidin-1-yl)propoxy)-[1,1'-biphenyl]-3-yl)methoxy)benzyl)-D-serine at 45 mg/kg, po measured upto 24 hrs by LC-MS/MS analysis; type: ADME, organism-based; settings: in vivo
[3] = Prodrug conversion in C57BL/6 mouse assessed as Tmax of (2-(benzo[c][1,2,5]oxadiazol-5-ylmethoxy)-5-chloro-4-((2-fluoro-3'-(3-(4-hydroxypiperidin-1-yl)propoxy)-[1,1'-biphenyl]-3-yl)methoxy)benzyl)-D-serine at 2 mg/kg, iv measured upto 24 hrs by LC-MS/MS analysis; type: ADME, organism-based; settings: in vivo
[4] = Prodrug conversion in C57BL/6 mouse assessed as AUC (0 to t) of (2-(benzo[c][1,2,5]oxadiazol-5-ylmethoxy)-5-chloro-4-((2-fluoro-3'-(3-(4-hydroxypiperidin-1-yl)propoxy)-[1,1'-biphenyl]-3-yl)methoxy)benzyl)-D-serine at 10 mg/kg, po measured upto 24 hrs by LC-MS/MS analysis; type: ADME, organism-based; settings: in vivo
[5] = Lipophilicity, log D of the compound at pH 7.4; type: physicochemical; settings: buffer
[6] = Acute toxicity in mouse assessed as signs of distress at 1000 mg/kg, po administered as single dose for 14 days; type: organism-based; settings: in vivo, 336 h, time 14 day
[7] = tested on: MC-38; assay: Antitumor activity against mouse MC38 cells implanted in C57BL/6J mouse assessed as tumor growth inhibition at 5 mg/kg, po measured for 20 days; type: functional; settings: MC-38, 480 h, time 20 day, read-out: TGI
[8] = tested on: CT26; assay: Antitumor activity against mouse CT26 cells implanted in BALB/c mouse assessed as tumor growth inhibition at 10 mg/kg, ip measured at 8 to 14 days; type: functional; settings: time 8-14 day, read-out: TGI
[9] = tested on: CT26; assay: Antitumor activity against mouse CT26 cells implanted in BALB/c mouse assessed as increase in percentage of CD8+ cells at 25 mg/kg, ip measured for 20 days; type: functional; settings: time 20 day
[10] = tested on: CT26; assay: Antitumor activity against mouse CT26 cells implanted in BALB/c mouse assessed as increase in INF-gamma level at 25 mg/kg, ip measured for 20 days; type: functional, organism-based; settings: time 20.0 day
[11] = tested on: MC-38; assay: Cytotoxicity against mouse MC38 cells assessed as effect on cell viability at 0.07 to 150 uM incubated for 48 hrs by CCK-8 assay; type: functional, cell-based; settings: dose 0.07-150 µM

For `CCOC(=O)[C@@H](CO)NCc1cc(Cl)c(OCc2cccc(-c3cccc(OCCCN4CCC(O)CC4)c3)c2F)cc1OCc1ccc2nonc2c1.Cl.Cl`, the AUCt [1] was 2373.5 ng·h/mL, the AUCt [2] was 405.6 ng·h/mL and the Tmax [3] was 4.8 min. For the same molecule, the AUCt [4] was 315.6 ng·h/mL, the logD [5] was 1.59 and the Activity [6] was “Non-Toxic”. For the same molecule, the inhibition in vivo at 5 mg/kg [7] was 49.2%, the inhibition in vivo at 10 mg/kg [8] was 21.9% and the Activity [9] was 7.2%. For the same molecule, the Activity [10] was “Active” and the Activity [11] was “inactive”.
